From ChEMBL document CHEMBL5308504, “Tm Shift (DSF) assay results for EUbOPEN Chemogenomics Library” (2023)
“And” between values parts separate entries of the source, which are not always exact repeats. Equal entries are not always repeated. Each block holds one compound with its values, some of them ahead of it.

Assays:
Peregrin (Homo sapiens) = biological target: T1, Peregrin (Homo sapiens) (UniProt P55201); details: Compound concentration 20.0 uM, Protein concentration 2.0 uM, Result type QC Liability
T1 sequence (whole entry): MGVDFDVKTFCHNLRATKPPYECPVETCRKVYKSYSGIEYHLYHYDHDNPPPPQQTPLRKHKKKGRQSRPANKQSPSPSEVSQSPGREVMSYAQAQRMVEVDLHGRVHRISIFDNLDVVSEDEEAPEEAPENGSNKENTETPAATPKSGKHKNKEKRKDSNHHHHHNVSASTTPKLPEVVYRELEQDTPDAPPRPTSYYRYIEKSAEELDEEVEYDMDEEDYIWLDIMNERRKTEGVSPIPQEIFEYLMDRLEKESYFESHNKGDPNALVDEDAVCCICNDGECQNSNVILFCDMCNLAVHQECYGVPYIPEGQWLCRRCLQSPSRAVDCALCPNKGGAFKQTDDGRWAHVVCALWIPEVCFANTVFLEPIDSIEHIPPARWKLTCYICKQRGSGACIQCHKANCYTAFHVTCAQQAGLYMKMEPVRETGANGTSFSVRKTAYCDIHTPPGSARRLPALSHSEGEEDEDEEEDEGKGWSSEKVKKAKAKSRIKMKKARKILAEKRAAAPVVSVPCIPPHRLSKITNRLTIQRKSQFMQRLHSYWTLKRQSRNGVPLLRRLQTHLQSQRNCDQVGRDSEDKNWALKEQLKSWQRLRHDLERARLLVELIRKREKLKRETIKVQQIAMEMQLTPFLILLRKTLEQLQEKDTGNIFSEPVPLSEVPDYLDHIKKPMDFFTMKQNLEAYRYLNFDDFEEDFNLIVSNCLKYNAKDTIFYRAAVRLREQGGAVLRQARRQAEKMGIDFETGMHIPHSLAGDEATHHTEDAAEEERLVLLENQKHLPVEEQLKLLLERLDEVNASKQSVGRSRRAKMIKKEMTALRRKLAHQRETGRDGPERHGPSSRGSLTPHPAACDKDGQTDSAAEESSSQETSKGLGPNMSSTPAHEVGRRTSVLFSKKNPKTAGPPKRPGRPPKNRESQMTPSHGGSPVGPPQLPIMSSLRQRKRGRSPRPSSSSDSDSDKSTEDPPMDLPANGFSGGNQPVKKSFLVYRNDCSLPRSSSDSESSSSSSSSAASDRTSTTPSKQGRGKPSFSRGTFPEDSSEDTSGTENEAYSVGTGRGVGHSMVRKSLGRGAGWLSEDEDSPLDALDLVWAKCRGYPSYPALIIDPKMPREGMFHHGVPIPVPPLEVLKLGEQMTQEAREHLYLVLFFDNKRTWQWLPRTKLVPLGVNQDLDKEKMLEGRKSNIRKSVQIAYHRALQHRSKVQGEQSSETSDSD

[1] = biological target: Fibroblast growth factor receptor 3 (Homo sapiens) (UniProt P22607); details: Compound concentration 20.0 uM, Protein concentration 2.0 uM, Result type QC Liability
Fibroblast growth factor receptor 3 (Homo sapiens), sequence (P22607 23-806 limits assumed): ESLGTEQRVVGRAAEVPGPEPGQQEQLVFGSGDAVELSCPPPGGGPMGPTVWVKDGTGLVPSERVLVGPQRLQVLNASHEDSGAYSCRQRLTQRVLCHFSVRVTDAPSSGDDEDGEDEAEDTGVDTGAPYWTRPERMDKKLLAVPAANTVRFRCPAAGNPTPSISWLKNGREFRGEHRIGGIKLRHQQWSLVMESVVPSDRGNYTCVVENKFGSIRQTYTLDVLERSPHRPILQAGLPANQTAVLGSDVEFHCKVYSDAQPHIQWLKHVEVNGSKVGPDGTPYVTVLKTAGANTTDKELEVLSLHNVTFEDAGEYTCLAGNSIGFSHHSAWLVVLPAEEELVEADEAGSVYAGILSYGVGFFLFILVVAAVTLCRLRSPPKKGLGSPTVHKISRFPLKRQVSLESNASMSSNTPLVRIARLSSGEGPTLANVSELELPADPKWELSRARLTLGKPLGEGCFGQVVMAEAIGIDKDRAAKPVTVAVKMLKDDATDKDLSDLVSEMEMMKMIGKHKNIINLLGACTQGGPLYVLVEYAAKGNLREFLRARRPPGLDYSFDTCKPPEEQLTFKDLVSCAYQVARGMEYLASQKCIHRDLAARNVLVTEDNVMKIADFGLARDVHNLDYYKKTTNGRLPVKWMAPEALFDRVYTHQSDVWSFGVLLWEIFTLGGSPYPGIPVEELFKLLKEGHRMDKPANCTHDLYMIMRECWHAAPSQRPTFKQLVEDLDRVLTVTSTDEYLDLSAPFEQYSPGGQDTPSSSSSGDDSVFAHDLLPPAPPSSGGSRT
Description: Thermal Shift Assay. Domain: start/stop: P449-E759

SMILES: N[C@@H]1CCCN(c2c(/C=C3\SC(=O)NC3=O)cccc2-c2ccccc2)C1
ΔTm (Peregrin (Homo sapiens)): -2.04 °C
ΔTm [1]: 0.95 °C

SMILES: COCCN1CCN(CCn2ccc(Nc3ncc4c(n3)-c3c(nn(C)c3-c3ccccc3)C[C@H]4C)n2)CC1
ΔTm (Peregrin (Homo sapiens)): -0.48 °C
ΔTm [1]: 3.58 °C

SMILES: CS(C)(=O)=Nc1ccc(-c2ccc(-c3nc4[nH]c(O[C@@H]5CO[C@H]6[C@@H]5OC[C@H]6O)nc4cc3Cl)cc2)cc1
ΔTm (Peregrin (Homo sapiens)): -3.2 °C
ΔTm [1]: 0.49 °C

SMILES: CCCS(=O)(=O)N[C@H]1C[C@@H](N(C)c2ncnc3[nH]ccc23)C1
ΔTm (Peregrin (Homo sapiens)): -1.75 °C
ΔTm [1]: 1.73 °C

SMILES: C=CC(=O)Nc1ccc2[nH]c(=O)n(C3CCN(Cc4ccc(-c5ccc6c(c5)NC(=O)CO6)cc4)CC3)c2c1
ΔTm (Peregrin (Homo sapiens)): -0.12 °C
ΔTm [1]: 0.37 °C

SMILES: CCn1c(-c2nonc2N)nc2ccccc21
ΔTm (Peregrin (Homo sapiens)): -1.24 °C
ΔTm [1]: 0.81 °C

SMILES: O=C(Nc1cccc(C(F)(F)F)c1)c1cccc(-n2cc(-c3ccco3)nn2)c1
ΔTm (Peregrin (Homo sapiens)): -8.11 °C
ΔTm [1]: -0.75 °C

SMILES: Cc1nnc2n1-c1sc3c(c1C(c1ccccc1Cl)=NC2)CC(C(=O)N1CCOCC1)C3 (stereo not given)
ΔTm (Peregrin (Homo sapiens)): -1.83 °C
ΔTm [1]: 0.52 °C

SMILES: Cc1nn(-c2ccccc2)c(Nc2ccccc2C(=O)O)c1-c1cc2nccnc2c(F)c1F
ΔTm (Peregrin (Homo sapiens)): -2.93 °C
ΔTm [1]: 1.95 °C

SMILES: O=C(O)CCCCN(CCc1ccccc1OCc1ccc(CCc2ccccc2)cc1)Cc1ccc(C(=O)O)cc1
ΔTm (Peregrin (Homo sapiens)): -2.23 °C
ΔTm [1]: 0.8 °C

SMILES: Cn1ccc(Cn2cnc(-c3ccc(F)cc3)c2-c2ccnc3[nH]ccc23)n1
ΔTm (Peregrin (Homo sapiens)): -1.13 °C
ΔTm [1]: 0.54 °C

SMILES: O=C(O)Cc1ccc(CCNS(=O)(=O)c2ccc(Cl)cc2)cc1
ΔTm (Peregrin (Homo sapiens)): -2.91 °C
ΔTm [1]: 0.43 °C

SMILES: CCCCOc1c(C(=O)c2c(F)cc(C)cc2F)c[nH]c2nncc1-2
ΔTm (Peregrin (Homo sapiens)): -1.13 °C
ΔTm [1]: 0.71 °C

SMILES: Oc1c(-c2cccnc2)cnn1-c1ccccn1
ΔTm (Peregrin (Homo sapiens)): -1.78 °C
ΔTm [1]: 0.56 °C

SMILES: COc1ccccc1N1CCN(c2ncnc3c2cnn3-c2ccccc2)CC1
ΔTm (Peregrin (Homo sapiens)): -1.23 °C
ΔTm [1]: 0.51 °C

SMILES: CCCCCCC(Sc1nc(Cl)cc(NCc2ccc(-c3ccccc3)cc2)n1)C(=O)O (stereo not given)
ΔTm (Peregrin (Homo sapiens)): -6.38 °C
ΔTm [1]: 0.79 °C

SMILES: CC(C)(O)c1cn(-c2ccc(-c3cccc(S(C)(=O)=O)c3)cc2)c(C(C)(C)c2ccccc2Cl)n1
ΔTm (Peregrin (Homo sapiens)): -1.46 °C
ΔTm [1]: -2.28 °C

Now from value to compound:

ΔTm (Peregrin (Homo sapiens)): -0.35 °C
ΔTm [1]: 0.61 °C
SMILES: CN(C)[C@H]1C[C@H](n2cnc(-c3ccc(F)cn3)c2-c2ccnc3[nH]ccc23)C1

ΔTm (Peregrin (Homo sapiens)): -1.64 °C and -0.91 °C
ΔTm [1]: 6.71 °C and 5.98 °C
SMILES: CC(C)NC(=O)[C@H]1CCC[C@H]1Nc1nc(Nc2ccc(C(=O)N(C)C3CCN(C)CC3)cc2)ncc1Cl

ΔTm (Peregrin (Homo sapiens)): -0.92 °C
ΔTm [1]: 1.01 °C
SMILES: COc1ccc(F)c(F)c1C(=O)c1cnc(NC2CCN(S(C)(=O)=O)CC2)nc1N

ΔTm (Peregrin (Homo sapiens)): -2.41 °C
ΔTm [1]: 0.66 °C
SMILES: COc1cc2nc([C@@H]3CCCS(=O)(=O)C3)n(C)c2cc1NC(=O)c1cccc(C(C)(F)F)n1

ΔTm (Peregrin (Homo sapiens)): -2.21 °C
ΔTm [1]: 1.58 °C
SMILES: O=C(NCCN1CCOCC1)c1ccc2nn(CCOc3ccc(Cl)cc3)cc2c1

ΔTm (Peregrin (Homo sapiens)): -3.96 °C
ΔTm [1]: 0.41 °C
SMILES: C[C@@H]1C[C@H](C)CN(c2ncc(Cl)c(Nc3ccc4c(c3)cc(OC(C)(C)C(=O)O)c(=O)n4C)n2)C1

ΔTm (Peregrin (Homo sapiens)): -0.73 °C
ΔTm [1]: 1.71 °C
SMILES: C=CC(=O)Nc1cccc(C)c1Nc1ncc2cc(-c3c(Cl)c(OC)cc(OC)c3Cl)ccc2n1

ΔTm (Peregrin (Homo sapiens)): -3.14 °C
ΔTm [1]: 0.68 °C
SMILES: Cc1ccc(NC(=O)c2ccc(CN3CC[C@H](N(C)C)C3)c(C(F)(F)F)c2)cc1Nc1nccc(-c2cncnc2)n1

ΔTm (Peregrin (Homo sapiens)): 0.03 °C
ΔTm [1]: 0.74 °C
SMILES: COCCNC1CCC(Nc2cc(-c3csc(NCC4(C#N)CCOCC4)n3)c(Cl)cn2)CC1 (stereo not given)

ΔTm (Peregrin (Homo sapiens)): -0.35 °C
ΔTm [1]: 0.29 °C
SMILES: CC(C)(C)c1cnc(CSc2cnc(NC(=O)C3CCN(CC(=O)NCCOCCOCCOCCNc4cccc5c4C(=O)N(C4CCC(=O)NC4=O)C5=O)CC3)s2)o1 (stereo not given)

ΔTm (Peregrin (Homo sapiens)): -1.99 °C
ΔTm [1]: 0.48 °C
SMILES: CC(=O)c1c(C)c2cnc(Nc3ccc(N4CCN(CCOCCOCCOCCNC(=O)COc5cccc6c5C(=O)N(C5CCC(=O)NC5=O)C6=O)CC4)cn3)nc2n(C2CCCC2)c1=O (stereo not given)

ΔTm (Peregrin (Homo sapiens)): -3.29 °C
ΔTm [1]: 0.53 °C
SMILES: CP(C)(=O)c1ccc(CNC(=O)C2CCN(S(=O)(=O)c3cc(Cl)cc(Cl)c3)CC2)cc1

ΔTm (Peregrin (Homo sapiens)): -2.54 °C
ΔTm [1]: 0.46 °C
SMILES: CN(C1CCc2c(c3ccccc3n2CC(=O)O)C1)S(=O)(=O)c1ccc(F)cc1 (stereo not given)
